# Values joined by “and” are separate entries in the source; they are usually repeats but may differ in a detail not shown here. Identical values can stand only once. “Also recorded” adds a separate entry of the source.
# Tests used:
# [1] = target: T1, murine SR-BI, isoform 1 (Mus musculus, UniProt Q61009); assay: DiI-HDL uptake assay (primary assay); assay type: cell-based; details: for IC50: ldlA[mSR-BI] cells, 3 hours with compound
# T1 construct: expressed in transfected cells; host or cells: ldlA[mSR-BI], Chinese hamster ovary (CHO) cells lacking LDL receptor (Krieger Laboratory)
# T1 sequence (Q61009 1-509): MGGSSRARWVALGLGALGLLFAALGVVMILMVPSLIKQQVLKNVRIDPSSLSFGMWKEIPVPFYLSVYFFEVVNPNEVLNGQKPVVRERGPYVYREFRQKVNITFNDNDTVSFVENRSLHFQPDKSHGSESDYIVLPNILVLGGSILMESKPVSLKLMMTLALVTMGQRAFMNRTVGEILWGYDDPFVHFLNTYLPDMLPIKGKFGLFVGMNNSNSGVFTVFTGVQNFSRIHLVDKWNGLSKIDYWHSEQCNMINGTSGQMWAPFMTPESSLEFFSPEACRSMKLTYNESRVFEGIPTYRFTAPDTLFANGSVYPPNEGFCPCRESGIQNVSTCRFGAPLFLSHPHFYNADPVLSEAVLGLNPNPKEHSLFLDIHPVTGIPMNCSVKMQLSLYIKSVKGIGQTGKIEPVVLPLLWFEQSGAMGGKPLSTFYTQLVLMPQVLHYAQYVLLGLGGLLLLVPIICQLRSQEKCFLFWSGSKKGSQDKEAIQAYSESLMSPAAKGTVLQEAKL
# Method: The following cell lines were used in this study: • ldlA[mSR-BI] is a Chinese hamster ovary (CHO) cell line that overexpresses murine SR-BI, isoform 1 (NP_058021) and was obtained from the (Krieger Laboratory). This cell line was used for the primary assay and several secondary assays. […] Assays DiI-HDL Uptake Assay (Primary Assay AID Nos. 488896, 493194, 540354 588392, 588553, 588548, 588754, 588828, 588833)
# ldlA[mSR-BI] cells were plated into 384-well plates at 30 μl per well and incubated overnight. As a measurable surrogate for cholesterol uptake, human HDL particles were treated with the lipophilic fluorescent dye DiI and exposed to ldlA[mSR-BI] cells in lipoprotein-free media (Ham's F12/0.5% fatty acid-free Bovine Serum Albumin (BSA)/25 mM HEPES pH 7.4 plus 10 μg protein/ml DiI-HDL). Cells took up the DiI via SR-BI over 3 hours in the presence of compound. After significant uptake of the DiI, the cells became fluorescent. The level of fluorescence correlates with the amount of DiI uptake and can be measured with a standard plate reader (here a PerkinElmer EnVision plate reader was used). The uptake of lipid (represented by DiI) was inhibited by the positive control compound BLT-1 or with an excess of HDL untreated with DiI. Primary HTS data were analyzed in Genedata Screener Assay Analyzer, and were normalized against DMSO and the positive control (1 μM BLT-1). For the HTS, the average of two replicates was used to rank order activity and to choose compounds for retests. For dose studies, percent (%) activity was determined for each concentration and the concentration response curves (CRCs) were generated with Genedata Condeseo.
# To identify novel inhibitors, SR-BI-mediated lipid uptake was measured in an engineered cell line that minimized potential uptake by other mechanisms, including via the LDL receptor (1). ldlA[mSR-BI] cells overexpress murine isoform 1 and selectively take up HDL lipid at similar levels as “has been reported for cultured mouse adrenal cells, perfused organs, and liver, adrenal gland and ovary in vivo” (1). This primary cell-based assay was used in a pilot screen that identified BLTs 1 through 5. The assay was slightly modified from the original protocol of Nieland et al. to increase throughput and to ease automation procedures.
# Briefly, the plate reader was switched to a Perkin-Elmer EnVision, several washing steps were eliminated, and the cell number per well was reduced without impacting the robustness of the assay. The automated assay was first tested with a validation set of 2,240 compounds. These compounds were tested in duplicate with in-plate neutral (DMSO) and positive (1 μM BLT-1) controls. Robustness, reproducibility, and variability parameters were analyzed before initiating the full HTS. The HTS was run over the course of several weeks. Data were normalized relative to controls, and plate patterns were corrected using a multiplicative algorithm in Genedata Screener Assay Analyzer. For each compound, the average of the two replicates was determined and used for subsequent analysis.
# [2] = target: T2, SR-BI (Mus musculus, UniProt Q61009); assay: DiI-HDL uptake assay with washout; assay type: cell-based, murine; design: expressed in transfected cells; host or cells: ldlA[mSR-BI], Chinese hamster ovary (CHO) cells lacking LDL receptor (Krieger Laboratory); details: compound pretreatment, wash, DiI-HDL without compound
# T2 sequence (Q61009 1-509): T1 sequence (Q61009 1-509)
# Method: DiI-HDL Uptake Assay with Washout (SA 5: AID No. 588831)
# This is a modification of the primary assay where cells are pretreated with compound but no compound is present during the DiI-HDL treatment period. ldlA[mSR-BI] cells were plated into 384-well plates at 30 μl per well and incubated overnight. Cells were treated with compound for 3 hours, then media were removed and the cells were washed with PBS before fresh lipoprotein-free media (Ham's F12/0.5% fatty acid-free Bovine Serum Albumin [BSA]/25 mM HEPES pH 7.4) was added with 10 μg protein/ml DiI-HDL. Cells took up the DiI via SR-BI over 3 hours in the absence of compound. After significant uptake of the DiI, the cells became fluorescent. The level of fluorescence correlates with the amount of DiI uptake and can be measured with a standard plate reader. The uptake of lipid (represented by DiI) was inhibited by the compound BLT-1.
smiles,measurement,setting,value
"CCCCCCC1CCCC1=NNC(N)=S (centres unmarked) [BLT-1, reference compound]",reduction in signal in primary HTS,"[1]; 1 μM, positive control",> 2.2 fold
same,IC50,[1],10.8 nM
same,reversibility of inhibition / activity after washout (in words),[2],nonreversible covalent modifier of SR-BI
"C[C@H](C(=O)NC1CCCC1)N(C(=O)Cn1nnc(-c2ccc3c(c2)OCO3)n1)C1CCCCC1 [ML279, (R)-2-(2-(5-(Benzo[d][1,3]dioxol-5-yl)-2H-tetrazol-2-yl)-N-cyclohexylacetamido)-N-cyclopentylpropanamide]",selectivity,[1],greater than 1000
same,higher potency than ITX-5061,[1]; AID No. 588828,approximately 15 fold
same,IC50,[1],16 nM and 16.2 nM
same,reversibility of inhibition / activity after washout (in words),[2],reversible binder of SR-BI; also recorded: greatly attenuated; also recorded: reversible inhibitor of HDL uptake; also recorded: showed no inhibition
same,reversibility of inhibition / activity after washout (in words),[2]; listed as compound of Formula (II),reversible inhibitor
